Experimental data taken from BigSolDB 2.1.

`CC(C)[C@H](N)C(=O)O` showed a solubility (mole fraction) (in DMF, 293.15 K) of 1.25e-06, a solubility (mole fraction) (in DMF, 303.25 K) of 2.49e-06 and a solubility (mole fraction) (in DMF, 313.25 K) of 4.36e-06. For the same compound, the solubility (mole fraction) (in DMF, 323.15 K) was 7.48e-06, the solubility (mole fraction) (in DMF, 333.25 K) was 1.06e-05 and the solubility (mole fraction) (in DMF, 343.25 K) was 1.49e-05. It also gave a solubility (mole fraction) (in acetone, 293.15 K) of 4.96e-07, a solubility (mole fraction) (in acetone, 302.95 K) of 9.91e-07 and a solubility (mole fraction) (in acetone, 313.35 K) of 1.98e-06. For the same compound, the solubility (mole fraction) (in acetone, 323.35 K) was 2.97e-06, the solubility (mole fraction) (in acetone, 328.15 K) was 3.97e-06 and the solubility (mole fraction) (in ethanol, 293.15 K) was 1.18e-05. It also gave a solubility (mole fraction) (in ethanol, 303.75 K) of 2.36e-05, a solubility (mole fraction) (in ethanol, 313.15 K) of 3.69e-05 and a solubility (mole fraction) (in ethanol, 323.15 K) of 5.34e-05. For the same compound, the solubility (mole fraction) (in ethanol, 333.25 K) was 7.62e-05, the solubility (mole fraction) (in ethanol, 343.25 K) was 0.000109 and the solubility (mole fraction) (in isopropanol, 293.45 K) was 2.56e-06. The solubility (mole fraction) (in isopropanol, 303.05 K) was 4.61e-06, the solubility (mole fraction) (in isopropanol, 313.35 K) was 7.17e-06 and the solubility (mole fraction) (in isopropanol, 323.25 K) was 1.08e-05. The solubility (mole fraction) (in isopropanol, 333.05 K) was 1.54e-05, the solubility (mole fraction) (in isopropanol, 343.35 K) was 2.1e-05 and the solubility (mole fraction) (in water, 293.55 K) was 0.00884. For the same compound, the solubility (mole fraction) (in water, 303.05 K) was 0.00938, the solubility (mole fraction) (in water, 313.15 K) was 0.0101 and the solubility (mole fraction) (in water, 323.05 K) was 0.0109. For the same compound, the solubility (mole fraction) (in water, 333.25 K) was 0.0117 and the solubility (mole fraction) (in water, 343.15 K) was 0.0129.
